Key:
[1] = target: wtEGFR (Homo sapiens (Human), UniProt P00533); experiment: HotSpot radiometric kinase activity assay, wtEGFR; format: biochemical; conditions: 4 nM wtEGFR, 10 μM 33P-ATP, 20 min preincubation, 2 hours, read-out: EGFR WT IC50
Experimental: (§1) The purpose of the wtERBB2, ERBB2-A775_G776insYVMA (ERBB2YVMA), wtEGFR biochemical assay was to evaluate the inhibition (% inhibition and IC50 values) of the small molecule inhibitors by using the “HotSpot” radiometric kinase activity assay. HotSpot assays monitor the […] of kinase substrate by the radioactive gamma phosphate of adenosine triphosphate (33P-ATP) during biochemical reactions. HotSpot assays was performed in steps upon completion of the kinase reaction: deposition of a reaction mixture aliquot onto P81 ion exchange paper, extensive washing of the aforementioned P81 paper using phosphoric acid to remove unbound radiolabeled 33P-ATP from the P81 paper, and finally visualization and quantification of the dried P81 paper utilizing a phosphoimager. […] Typical reaction solutions (10 μL final reaction volume) contained the following buffer conditions: 20 mM Hepes (pH 7.5), 10 mM MgCl2, 1 mM EGTA, 0.01% Brij35, 0.02 mg/mL BSA, 0.1 mM Na3VO4, 2 mM DTT, 1% DMSO. The assay was primed by preparing a fresh 0.2 mg/mL solution of pEY (Sigma Cat: P7244) substrate in the reaction buffer and supplementing that solution with […] of MnCl2 as substrate cofactor (Sigma Cat: M9522). The kinase of interest was then added to the solution at the appropriate concentration (30 nM wtERBB2 from, or 20 nM ERBB2YVMA, or 4 nM wtEGFR) and gently mixed prior to delivery of compound in 100% DMSO by acoustic dispensing (Beckman Echo550). Compound, Kinase, and substrate were allowed to incubate for 20 min at room temperature prior to the initiation of the reaction by addition of 33P-ATP (PerkinElmer Cat: NEG602, final conc 10 μM). […] IC50 determinations were made from a plot of kinase activity as a function of inhibitor concentration fit to the 4-parameter IC50 equation with the enzyme concentration held constant using GraphPad Prism (San Diego).

[2] = target: wtERBB2 (Homo sapiens (Human), UniProt P04626); experiment: HotSpot radiometric kinase activity assay, wtERBB2; format: biochemical; conditions: 30 nM wtERBB2, 10 μM 33P-ATP, 20 min preincubation, 2 hours, read-out: HER2 WT IC50
Experimental: as §1

[3] = system: BaF3_EGFRWT cells; experiment: Cell growth inhibition assay, BaF3_EGFRWT; format: cell-based; conditions: 72 h, 80 ng/mL recombinant human EGF, 3 days treatment, CellTiterGlo 2.0, read-out: EGFR WT IC50 (nM), cell growth inhibition
[4] = system: BaF3_HER2YVMA cells; experiment: Cell growth inhibition assay, BaF3_HER2YVMA; format: cell-based; conditions: 72 h, BaF3_HER2YVMA cells, 3 days treatment, CellTiterGlo 2.0; read-out: HER2-YVMA IC50 (nM), cell growth inhibition
[5] = system: BaF3_HER2WT cells; experiment: Cell growth inhibition assay, BaF3_HER2WT; format: cell-based; conditions: 72 h, 3 days treatment, CellTiterGlo 2.0, read-out: HER2 WT IC50 (nM), cell growth inhibition

Sequence of wtERBB2 (P04626 23-1255): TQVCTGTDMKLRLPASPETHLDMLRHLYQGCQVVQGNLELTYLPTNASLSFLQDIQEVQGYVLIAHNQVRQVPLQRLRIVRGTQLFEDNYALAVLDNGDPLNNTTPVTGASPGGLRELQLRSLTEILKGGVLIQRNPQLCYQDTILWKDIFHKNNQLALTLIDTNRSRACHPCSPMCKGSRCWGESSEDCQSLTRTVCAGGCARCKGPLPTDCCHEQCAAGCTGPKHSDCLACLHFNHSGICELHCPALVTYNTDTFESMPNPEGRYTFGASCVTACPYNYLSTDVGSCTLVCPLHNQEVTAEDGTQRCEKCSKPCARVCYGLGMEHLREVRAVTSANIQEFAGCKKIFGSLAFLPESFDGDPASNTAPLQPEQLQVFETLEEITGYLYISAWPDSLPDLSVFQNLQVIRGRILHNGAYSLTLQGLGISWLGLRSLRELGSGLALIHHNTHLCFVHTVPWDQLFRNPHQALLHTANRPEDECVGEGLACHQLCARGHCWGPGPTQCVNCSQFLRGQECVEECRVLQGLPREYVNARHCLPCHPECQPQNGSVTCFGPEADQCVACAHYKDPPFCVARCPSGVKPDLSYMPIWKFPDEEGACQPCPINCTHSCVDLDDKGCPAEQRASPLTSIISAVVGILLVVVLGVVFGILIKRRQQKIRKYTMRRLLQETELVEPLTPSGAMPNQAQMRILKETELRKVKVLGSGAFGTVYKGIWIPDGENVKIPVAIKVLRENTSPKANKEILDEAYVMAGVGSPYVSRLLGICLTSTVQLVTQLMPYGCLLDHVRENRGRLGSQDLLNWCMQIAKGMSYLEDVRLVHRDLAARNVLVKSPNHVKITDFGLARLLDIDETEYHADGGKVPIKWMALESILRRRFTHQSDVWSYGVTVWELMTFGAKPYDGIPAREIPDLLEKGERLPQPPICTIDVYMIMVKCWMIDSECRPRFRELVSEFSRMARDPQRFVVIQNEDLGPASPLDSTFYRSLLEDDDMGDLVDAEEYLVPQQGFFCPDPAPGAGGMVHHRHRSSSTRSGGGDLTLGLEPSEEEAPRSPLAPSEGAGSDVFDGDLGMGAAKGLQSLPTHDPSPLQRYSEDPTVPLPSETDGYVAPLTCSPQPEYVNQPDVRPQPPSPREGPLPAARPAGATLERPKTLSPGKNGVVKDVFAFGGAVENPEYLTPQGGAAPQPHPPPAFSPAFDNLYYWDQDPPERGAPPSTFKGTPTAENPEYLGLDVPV
Sequence of wtEGFR (P00533 25-1210): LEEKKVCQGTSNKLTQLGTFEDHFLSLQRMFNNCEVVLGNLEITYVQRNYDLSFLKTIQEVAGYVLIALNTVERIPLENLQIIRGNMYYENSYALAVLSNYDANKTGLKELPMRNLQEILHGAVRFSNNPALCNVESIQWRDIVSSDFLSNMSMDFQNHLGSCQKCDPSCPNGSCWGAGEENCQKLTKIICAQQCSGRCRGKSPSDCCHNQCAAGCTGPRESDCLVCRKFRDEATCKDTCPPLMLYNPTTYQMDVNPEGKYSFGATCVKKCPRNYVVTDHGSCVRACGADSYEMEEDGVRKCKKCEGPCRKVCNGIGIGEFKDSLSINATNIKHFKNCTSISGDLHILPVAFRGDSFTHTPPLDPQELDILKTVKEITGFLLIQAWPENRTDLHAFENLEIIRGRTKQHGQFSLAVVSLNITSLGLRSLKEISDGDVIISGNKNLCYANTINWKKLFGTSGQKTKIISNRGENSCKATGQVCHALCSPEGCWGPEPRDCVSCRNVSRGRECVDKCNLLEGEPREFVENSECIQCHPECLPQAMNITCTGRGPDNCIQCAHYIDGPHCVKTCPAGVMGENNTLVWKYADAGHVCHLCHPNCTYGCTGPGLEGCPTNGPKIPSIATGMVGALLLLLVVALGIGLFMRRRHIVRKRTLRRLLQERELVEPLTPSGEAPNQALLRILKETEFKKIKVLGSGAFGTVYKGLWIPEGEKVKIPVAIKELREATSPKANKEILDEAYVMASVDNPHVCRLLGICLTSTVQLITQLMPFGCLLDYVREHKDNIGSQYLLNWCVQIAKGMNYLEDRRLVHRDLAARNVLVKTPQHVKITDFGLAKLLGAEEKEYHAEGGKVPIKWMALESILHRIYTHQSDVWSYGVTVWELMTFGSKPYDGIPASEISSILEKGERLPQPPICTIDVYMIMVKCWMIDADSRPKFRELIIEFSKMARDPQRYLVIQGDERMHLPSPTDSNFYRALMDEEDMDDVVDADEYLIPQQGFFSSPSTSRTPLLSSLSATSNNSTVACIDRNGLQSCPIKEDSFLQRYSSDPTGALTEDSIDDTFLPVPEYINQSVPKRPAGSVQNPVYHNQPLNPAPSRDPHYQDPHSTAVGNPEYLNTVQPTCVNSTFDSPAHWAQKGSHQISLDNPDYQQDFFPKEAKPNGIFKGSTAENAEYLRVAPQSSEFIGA

Compound | IC50 [1] [nM] | IC50 [2] [nM] | IC50 [3] [nM] | IC50 [4] [nM] | IC50 [5] [nM]
COC1CCN(C/C=C/C(=O)N2CCC(c3ccn4ncnc(Nc5ccc(Oc6ccc7c(c6)ncn7C)c(C)c5)c34)CC2)C1 (racemic) [Example 106, (E)-4-(3-methoxypyrrolidin-1-yl)-1-(4-(4-((3-methyl-4-((1-methyl-1H-benzo[d]imidazol-5-yl)oxy)phenyl)amino)pyrrolo[2,1-f][1,2,4]triazin-5-yl)piperidin-1-yl)but-2-en-1-one] | < 200 | – | 1500 to 5000 | – | –
C=C(F)C(=O)N1CC(n2cc(-c3ccn4ncnc(Nc5ccc(Oc6ccn7ncnc7c6)c(C)c5)c34)cn2)C1 [Example 19, 1-(3-(4-(4-((4-([1,2,4]triazolo[1,5-a]pyridin-7-yloxy)-3-methylphenyl)amino)pyrrolo[2,1-f][1,2,4]triazin-5-yl)-1H-pyrazol-1-yl)azetidin-1-yl)-2-fluoroprop-2-en-1-one] | – | < 200 | 1500 to 5000 | 500 to 1500 | 200 to 500
Cc1cc(Nc2ncnn3ccc(C4CN(C(=O)/C=C/CN5CC(F)(F)C5)C4)c23)ccc1Oc1ccn2ncnc2c1 [Example 91, (E)-1-(3-(4-((4-([1,2,4]triazolo[1,5-a]pyridin-7-yloxy)-3-methylphenyl)amino)pyrrolo[2,1-f][1,2,4]-triazin-5-yl)azetidin-1-yl)-4-(3,3-difluoroazetidin-1-yl)but-2-en-1-one] | – | < 200 | 1500 to 5000 | 500 to 1500 | < 200
Cc1cc(Nc2ncnn3ccc(C4CCN(C(=O)CCCN(C)C)CC4)c23)ccc1Oc1ccn2ncnc2c1 [Example 23, 1-(4-(4-((4-([1,2,4]triazolo[1,5-a]pyridin-7-yloxy)-3-methylphenyl)amino)pyrrolo[2,1-f][1,2,4]triazin-5-yl)piperidin-1-yl)-4-(dimethylamino)butan-1-one] | – | < 200 | 1500 to 5000 | 1500 to 5000 | 500 to 1500
Cc1cc(Nc2ncnn3ccc(N4CC5(CCN(C(=O)/C=C/CN(C)C)C5)C4)c23)ccc1Oc1ccn2ncnc2c1 [Example 156, (2E)-4-(dimethylamino)-1-(2-{4-[(3-methyl-4-{[1,2,4]triazolo[1,5-a]pyridin-7-yloxy}phenyl)amino]pyrrolo[2,1-f][1,2,4]triazin-5-yl}-2,6-diazaspiro[3.4]octan-6-yl)but-2-en-1-one] | – | < 200 | 1500 to 5000 | 1500 to 5000 | 200 to 500
C=CC(=O)NC1CN(c2ccn3ncnc(Nc4ccc(Oc5ccn6ncnc6c5)c(C)c4)c23)C1 [Example 14, N-(1-(4-((4-([1,2,4]triazolo[1,5-a]pyridin-7-yloxy)-3-methylphenyl)amino)pyrrolo[2,1-f][1,2,4]triazin-5-yl)azetidin-3-yl)acrylamide] | – | < 200 | 1500 to 5000 | < 200 | < 200
Cc1cc(Nc2ncnn3ccc(C4CN(C(=O)/C=C/CN5CCC5)C4)c23)ccc1Oc1ccn2ncnc2c1 [Example 102, (E)-1-(3-(4-((4-([1,2,4]triazolo[1,5-a]pyridin-7-yloxy)-3-methylphenyl)amino)pyrrolo[2,1-f][1,2,4]triazin-5-yl)azetidin-1-yl)-4-(azetidin-1-yl)but-2-en-1-one] | – | < 200 | 1500 to 5000 | 1500 to 5000 | 500 to 1500
Cc1cc(Nc2ncnn3ccc(C(=O)NCCCN(C)C)c23)ccc1Oc1ccn2ncnc2c1 [Example 178, 4-((4-([1,2,4]triazolo[1,5-a]pyridin-7-yloxy)-3-methylphenyl)amino)-N-(3-(dimethylamino)-propyl)pyrrolo[2,1-f][1,2,4]triazine-5-carboxamide] | – | < 200 | > 5000 | 1500 to 5000 | 200 to 500
C=CC(=O)N1CCC[C@H](c2ccn3ncnc(Nc4ccc(Oc5ccn6ncnc6c5)c(C)c4)c23)CC1 [Example 112, (S)-1-(4-(4-((4-([1,2,4]triazolo[1,5-a]pyridin-7-yloxy)-3-methylphenyl)amino)pyrrolo[2,1-f][1,2,4]triazin-5-yl)azepan-1-yl)prop-2-en-1-one] | < 200 | < 200 | – | – | –
C=CC(=O)N1CC2(C1)CN(c1ccn3ncnc(Nc4ccc(Oc5ccn6ncnc6c5)c(C)c4)c13)C2 [Example 16, 1-(6-(4-((4-([1,2,4]triazolo[1,5-a]pyridin-7-yloxy)-3-methylphenyl)amino)pyrrolo[2,1-f][1,2,4]triazin-5-yl)-2,6-diazaspiro[3.3]heptan-2-yl)prop-2-en-1-one] | – | < 200 | 1500 to 5000 | 500 to 1500 | 200 to 500
C=C(F)C(=O)NC1CN(c2ccn3ncnc(Nc4ccc(Oc5ccn6ncnc6c5)c(C)c4)c23)C1 [Example 18, N-(1-(4-((4-([1,2,4]triazolo[1,5-a]pyridin-7-yloxy)-3-methylphenyl)amino)pyrrolo[2,1-f][1,2,4]triazin-5-yl)azetidin-3-yl)-2-fluoroacrylamide] | – | < 200 | 1500 to 5000 | 500 to 1500 | 200 to 500

Second part, the molecule after the results:

IC50 [1] [nM] | IC50 [2] [nM] | IC50 [3] [nM] | IC50 [4] [nM] | IC50 [5] [nM] | Compound
< 200 | < 200 | – | – | – | Cc1cc(Nc2ncnn3ccc([C@@H]4CCN(C(=O)/C=C/CN(C)C)C4)c23)ccc1Oc1ccn2ncnc2c1 (single isomer, unassigned) [Example 99]
– | < 200 | 1500 to 5000 | < 200 | < 200 | Cc1cc(Nc2ncnn3ccc(N4CCN(C(=O)/C=C/CN(C)C)CC4)c23)ccc1Oc1ccn2ncnc2c1 [Example 22, (E)-1-(4-(4-((4-([1,2,4]triazolo[1,5-a]pyridin-7-yloxy)-3-methylphenyl)amino)pyrrolo[2,1-f][1,2,4]triazin-5-yl)piperazin-1-yl)-4-(dimethylamino)but-2-en-1-one]
– | < 200 | 1500 to 5000 | < 200 | < 200 | Cc1cc(Nc2ncnn3ccc(C4CCCN(C(=O)/C=C/CN(C)C)CC4)c23)ccc1Oc1ccn2ncnc2c1 (stereo not drawn) [Example 93, (E)-1-(4-(4-((4-([1,2,4]triazolo[1,5-a]pyridin-7-yloxy)-3-methylphenyl)amino)pyrrolo[2,1-f][1,2,4]triazin-5-yl)azepan-1-yl)-4-(dimethylamino)but-2-en-1-one]
– | < 200 | 1500 to 5000 | 500 to 1500 | < 200 | Cc1cc(Nc2ncnn3ccc(C4CCCN(C(=O)/C=C/CN(C)C)C4)c23)ccc1Oc1ccn2ncnc2c1 (stereo not drawn) [Example 96, (E)-1-(3-(4-((4-([1,2,4]triazolo[1,5-a]pyridin-7-yloxy)-3-methylphenyl)amino)-pyrrolo-[2,1-f][1,2,4]-triazin-5-yl)piperidin-1-yl)-4-(dimethylamino)but-2-en-1-one]
< 200 | < 200 | – | – | – | Cc1cc(Nc2ncnn3ccc([C@@H]4CCCN(C(=O)/C=C/CN(C)C)CC4)c23)ccc1Oc1ccn2ncnc2c1 (single isomer, unassigned) [Example 109]
– | < 200 | 1500 to 5000 | 500 to 1500 | 200 to 500 | Cc1cc(Nc2ncnn3ccc(C4CC5(C4)CN(C(=O)/C=C/CN(C)C)C5)c23)ccc1Oc1ccn2ncnc2c1 [Example 95, (E)-1-(6-(4-((4-([1,2,4]triazolo[1,5-a]pyridin-7-yloxy)-3-methylphenyl)amino)pyrrolo[2,1-f][1,2,4]triazin-5-yl)-2-azaspiro[3.3]heptan-2-yl)-4-(dimethylamino)but-2-en-1-one]
– | < 200 | 1500 to 5000 | < 200 | < 200 | C=CC(=O)N1CCC(c2ccn3ncnc(Nc4ccc(Oc5ccn6ncnc6c5)c(C)c4)c23)C1 (stereo not drawn) [Example 11, 1-(3-(4-((4-([1,2,4]triazolo[1,5-a]pyridin-7-yloxy)-3-methylphenyl)amino)pyrrolo[2,1-f][1,2,4]triazin-5-yl)pyrrolidin-1-yl)prop-2-en-1-one]
< 200 | < 200 | – | – | – | C=CC(=O)N1CCC[C@@H](c2ccn3ncnc(Nc4ccc(Oc5ccn6ncnc6c5)c(C)c4)c23)CC1 (single isomer, unassigned) [Example 111]

Reference: patent US20250276983A1, “COMPOUNDS AND METHODS FOR MODULATING HER2” (IAMBIC THERAPEUTICS, INC., priority 2022, published 2025)
